In PubChem BioAssay (NCI):
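Dose response: 5 concentrations. Exposure: 48 h. Format: 96-well plates. Endpoint: linear interpolation; highest concentration if not reached. GI50 marks 50% less growth. TGI denotes the concentration required for complete inhibition of growth.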

Columns and labels:
Assay in all cases: DTP human tumour cell line panel, 48 h
[1] = system: HL-60(TB) leukemia
[2] = system: M14 melanoma
[3] = system: MALME-3M melanoma
[4] = system: NCI/ADR-RES ovarian
[5] = system: SW-620 colon
[6] = system: SF-295 CNS
[7] = system: A549 NSCLC
[8] = system: MDA-MB-435
[9] = system: HCT-116 colon
[10] = system: HOP-92 NSCLC
[11] = system: A498 renal
[12] = system: SF-539 CNS
[13] = system: TK-10 renal
[14] = system: ACHN renal
[15] = system: NCI-H23 lung
[16] = system: EKVX NSCLC
[17] = system: T-47D breast
[18] = system: MCF7 breast
[19] = system: MDA-MB-468 breast
[20] = system: HS 578T breast
[21] = system: IGROV1 ovarian
[22] = system: BT-549 breast
[23] = system: OVCAR-4 ovarian
[24] = system: K-562 leukemia
[25] = system: RPMI-8226 leukemia
[26] = system: NCI-H226 lung
[27] = system: U251 CNS
[28] = system: MDA-MB-231 breast
[29] = system: UACC-62 melanoma
[30] = system: LOX IMVI melanoma
[31] = system: RXF 393 renal
[32] = system: MOLT-4 leukemia
[33] = system: PC-3 prostate
[34] = system: HCC-2998 colon
[35] = system: SK-MEL-5 melanoma
[36] = system: HOP-62 NSCLC
[37] = system: SK-OV-3 ovarian
[38] = system: HCT-15 colon
[39] = system: SR leukemia
[40] = system: OVCAR-3 ovarian
[41] = system: COLO 205 colon
[42] = system: NCI-H522 lung
[43] = system: CAKI-1 renal
[44] = system: NCI-H460 lung
[45] = system: OVCAR-8 ovarian
[46] = system: CCRF-CEM leukemia
[47] = system: SK-MEL-2 melanoma
[48] = system: SNB-19 CNS
[49] = system: UO-31 renal
[50] = system: SF-268 CNS
[51] = system: SNB-75 CNS
[52] = system: UACC-257 melanoma
[53] = system: DU-145 prostate
[54] = system: HT29 colon
[55] = system: KM12 colon
[56] = system: SK-MEL-28 melanoma
[57] = system: SN12C renal
[58] = system: 786-0 renal
[59] = system: OVCAR-5 ovarian

With `Cc1ccc(C(=O)C[n+]2cccc3c4ccccc4ccc32)cc1` the GI50 [1] was 3.75 µM, the TGI [1] was 21.1 µM and the GI50 [2] was 11.1 µM. For the same compound, the TGI [2] was 29.2 µM, the GI50 [3] was 13.9 µM and the TGI [3] was 27.4 µM. It also gave a GI50 [4] of over 100 µM, a TGI [4] of over 100 µM and a GI50 [5] of 13.4 µM. The TGI [5] was 87.1 µM, the GI50 [6] was 7.05 µM and the TGI [6] was 29.1 µM. The GI50 [7] was 11 µM, the TGI [7] was over 100 µM and the GI50 [8] was 14.2 µM. For the same compound, the TGI [8] was 29.8 µM, the GI50 [9] was 6.64 µM and the TGI [9] was 28.6 µM. For the same compound, the GI50 [10] was 6.11 µM, the TGI [10] was 40.8 µM and the GI50 [11] was 24.1 µM. The TGI [11] was over 100 µM, the GI50 [12] was 16.9 µM and the TGI [12] was 58.7 µM. The GI50 [13] was 26.4 µM, the TGI [13] was over 100 µM and the GI50 [14] was 15.9 µM. The TGI [14] was over 100 µM, the GI50 [15] was 10.6 µM and the TGI [15] was 49 µM. For the same compound, the GI50 [16] was 7.26 µM, the TGI [16] was over 100 µM and the GI50 [17] was 6.57 µM. The TGI [17] was 46.2 µM, the GI50 [18] was 5.44 µM and the TGI [18] was 24.4 µM. For the same compound, the GI50 [19] was 1.61 µM, the TGI [19] was 7.72 µM and the GI50 [20] was 15.8 µM. For the same compound, the TGI [20] was 83.4 µM, the GI50 [21] was 19.1 µM and the TGI [21] was 82.5 µM. The GI50 [22] was 5.68 µM, the TGI [22] was 18.9 µM and the GI50 [23] was 4.43 µM. It also gave a TGI [23] of over 100 µM, a GI50 [24] of 2.45 µM and a TGI [24] of over 100 µM. It also gave a GI50 [25] of 3.87 µM, a TGI [25] of 21.9 µM and a GI50 [26] of 5.18 µM. The TGI [26] was 42.9 µM, the GI50 [27] was 9.32 µM and the TGI [27] was 34.8 µM. The GI50 [28] was 14.4 µM, the TGI [28] was 40.8 µM and the GI50 [29] was 12.6 µM. For the same compound, the TGI [29] was 26.5 µM, the GI50 [30] was 11.2 µM and the TGI [30] was 24.1 µM. The GI50 [31] was 3.82 µM, the TGI [31] was 21.6 µM and the GI50 [32] was 13.2 µM. It also gave a TGI [32] of 83.9 µM, a GI50 [33] of 5.53 µM and a TGI [33] of 59.4 µM. The GI50 [34] was 13.6 µM, the TGI [34] was 28.3 µM and the GI50 [35] was 3.73 µM. For the same compound, the TGI [35] was 14.8 µM, the GI50 [36] was 11.8 µM and the TGI [36] was over 100 µM. The GI50 [37] was 22.1 µM, the TGI [37] was over 100 µM and the GI50 [38] was 28.1 µM. For the same compound, the TGI [38] was over 100 µM, the GI50 [39] was 29.7 µM and the TGI [39] was over 100 µM. The GI50 [40] was 6.1 µM, the TGI [40] was 52.3 µM and the GI50 [41] was 9.03 µM. It also gave a TGI [41] of 25.5 µM, a GI50 [42] of 6.66 µM and a TGI [42] of 24.6 µM. The GI50 [43] was 15.6 µM, the TGI [43] was 71.1 µM and the GI50 [44] was 10.5 µM. For the same compound, the TGI [44] was 25.8 µM, the GI50 [45] was 6.97 µM and the TGI [45] was over 100 µM. It also gave a GI50 [46] of 13.1 µM, a TGI [46] of 70 µM and a GI50 [47] of 14.5 µM. The TGI [47] was 52.5 µM, the GI50 [48] was 18.5 µM and the TGI [48] was over 100 µM. The GI50 [49] was 19.9 µM, the TGI [49] was over 100 µM and the GI50 [50] was 17.2 µM. It also gave a TGI [50] of over 100 µM, a GI50 [51] of 8.73 µM and a TGI [51] of 61.9 µM. For the same compound, the GI50 [52] was 10.3 µM, the TGI [52] was 25.7 µM and the GI50 [53] was 18.5 µM. It also gave a TGI [53] of over 100 µM, a GI50 [54] of 5.6 µM and a TGI [54] of 48.4 µM. For the same compound, the GI50 [55] was 16 µM, the TGI [55] was 65 µM and the GI50 [56] was 14.8 µM. It also gave a TGI [56] of 32.6 µM, a GI50 [57] of 12.5 µM and a TGI [57] of over 100 µM. For the same compound, the GI50 [58] was 18.6 µM, the TGI [58] was 48.3 µM and the GI50 [59] was 20.4 µM. For the same compound, the TGI [59] was over 100 µM.
